Data: the supplement of paper PMC4862054

Assays:
Conditions in all cases: incubation time: 72 h
MFM-223 [1] = assay: normalised viability (% of control), CellTiter-Blue; higher = more viable cells (about 100 = DMSO control)
Protocol: (§1)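 DSRT, CellTiter-Blue viability, 72 h incubation. Signal is normalised to DMSO and benzethonium chloride controls. Value is the normalised response at dose 3.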

Hs578T = assay: as above
Protocol: as §1

HDQ-P1 [2] = assay: as above
Protocol: as §1

HCC1143 [3] = assay: as above
Protocol: as §1

CAL-51 [4] = assay: as above
Protocol: as §1

MDA-MB-468 [5] = assay: as above
Protocol: as §1

BT-474 [6] = assay: as above
Protocol: as §1

CAL-120 [7] = assay: as above
Protocol: as §1

HCC1937 = assay: as above
Protocol: as §1

DU-4475 [8] = assay: as above
Protocol: as §1

CAL-85-1 [9] = assay: as above
Protocol: as §1

SK-BR-3 [10] = assay: as above
Protocol: as §1

MDA-MB-231 [11] = assay: as above
Protocol: as §1

BT-549 [12] = assay: as above
Protocol: as §1

HCC1599 = assay: as above
Protocol: as §1

MDA-MB-436 = assay: as above
Protocol: as §1

MDA-MB-453 [13] = assay: as above
Protocol: as §1

CAL-148 [14] = assay: as above
Protocol: as §1

MFM-223 [15] = assay: normalised viability (% of control), CellTiter-Blue; higher = more viable cells (100 = DMSO, 0 = benzethonium chloride kill control)
Procedure, shortened: (§2)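 Vehicle (100) and a positive kill control (0) anchored the normalisation of each plate, and Z'-factor was used for quality control. Breast cancer cell lines in 20 µl suspension were incubated 72 h over compound in 5 µl medium in 384-well plates, followed by CellTiter-Blue at 560/590 nm. The value is normalised viability at a single listed concentration of the series.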

HDQ-P1 [16] = assay: as above
Procedure, shortened: as §2

HCC1143 [17] = assay: as above
Procedure, shortened: as §2

CAL-51 [18] = assay: as above
Procedure, shortened: as §2

MDA-MB-468 [19] = assay: as above
Procedure, shortened: as §2

BT-474 [20] = assay: as above
Procedure, shortened: as §2

CAL-120 [21] = assay: as above
Procedure, shortened: as §2

DU-4475 [22] = assay: as above
Procedure, shortened: as §2

CAL-85-1 [23] = assay: as above
Procedure, shortened: as §2

SK-BR-3 [24] = assay: as above
Procedure, shortened: as §2

MDA-MB-231 [25] = assay: as above
Procedure, shortened: as §2

BT-549 [26] = assay: as above
Procedure, shortened: as §2

MDA-MB-453 [27] = assay: as above
Procedure, shortened: as §2

CAL-148 [28] = assay: as above
Procedure, shortened: as §2

Work on `Cc1cnc(NC(=O)Nc2cc(Br)c(C)cc2OC[C@@H]2CNCCO2)cn1` yielded a normalised viability (MFM-223 [1]; 10 nM) of 89.6%, a normalised viability (Hs578T; 10 nM) of 101% and a normalised viability (HDQ-P1 [2]; 1 nM) of 90.1%. The normalised viability (HCC1143 [3]; 10 nM) was 82.5%, the normalised viability (CAL-51 [4]; 1 nM) was 95% and the normalised viability (MDA-MB-468 [5]; 10 nM) was 104%. It also gave a normalised viability (BT-474 [6]; 10 nM) of 101%, a normalised viability (CAL-120 [7]; 10 nM) of 87.9% and a normalised viability (HCC1937; 10 nM) of 127%. The normalised viability (DU-4475 [8]; 1 nM) was 90.8%, the normalised viability (CAL-85-1 [9]; 1 nM) was 91.4% and the normalised viability (SK-BR-3 [10]; 10 nM) was 88.3%. It also gave a normalised viability (MDA-MB-231 [11]; 10 nM) of 103%, a normalised viability (BT-549 [12]; 10 nM) of 87.3% and a normalised viability (HCC1599; 10 nM) of 122%. For the same compound, the normalised viability (MDA-MB-436; 10 nM) was 112%, the normalised viability (MDA-MB-453 [13]; 1 nM) was 104% and the normalised viability (CAL-148 [14]; 1 nM) was 90.3%. The normalised viability (MFM-223 [15]; 0.1 nM) was 102%, the normalised viability (HDQ-P1 [16]; 0.1 nM) was 84.2% and the normalised viability (HCC1143 [17]; 0.1 nM) was 115%. The normalised viability (CAL-51 [18]; 0.1 nM) was 86.8%, the normalised viability (MDA-MB-468 [19]; 0.1 nM) was 110% and the normalised viability (BT-474 [20]; 0.1 nM) was 107%. The normalised viability (CAL-120 [21]; 0.1 nM) was 98.6%, the normalised viability (DU-4475 [22]; 0.1 nM) was 108% and the normalised viability (CAL-85-1 [23]; 0.1 nM) was 96.7%. The normalised viability (SK-BR-3 [24]; 0.1 nM) was 91.2%, the normalised viability (MDA-MB-231 [25]; 0.1 nM) was 93.3% and the normalised viability (BT-549 [26]; 0.1 nM) was 87.9%. It also gave a normalised viability (MDA-MB-453 [27]; 0.1 nM) of 99.5% and a normalised viability (CAL-148 [28]; 0.1 nM) of 99.8%.
Work on `NCCCNCCSP(=O)(O)O` [Amifostine] yielded a normalised viability (MFM-223 [1]; 100 nM) of 77.7%, a normalised viability (Hs578T; 100 nM) of 79.1% and a normalised viability (HDQ-P1 [2]; 10 nM) of 105%. For the same compound, the normalised viability (HCC1143 [3]; 100 nM) was 78.3%, the normalised viability (CAL-51 [4]; 10 nM) was 105% and the normalised viability (MDA-MB-468 [5]; 100 nM) was 102%. It also gave a normalised viability (BT-474 [6]; 100 nM) of 95.8%, a normalised viability (CAL-120 [7]; 100 nM) of 90.4% and a normalised viability (HCC1937; 100 nM) of 85.5%. It also gave a normalised viability (DU-4475 [8]; 10 nM) of 97.3%, a normalised viability (CAL-85-1 [9]; 10 nM) of 90.7% and a normalised viability (SK-BR-3 [10]; 100 nM) of 108%. It also gave a normalised viability (MDA-MB-231 [11]; 100 nM) of 93.1%, a normalised viability (BT-549 [12]; 100 nM) of 103% and a normalised viability (HCC1599; 100 nM) of 98.2%. The normalised viability (MDA-MB-436; 100 nM) was 107%, the normalised viability (MDA-MB-453 [13]; 10 nM) was 85.7% and the normalised viability (CAL-148 [14]; 10 nM) was 93.5%. The normalised viability (MFM-223 [15]; 1 nM) was 76.4%, the normalised viability (HDQ-P1 [16]; 1 nM) was 98.3% and the normalised viability (HCC1143 [17]; 1 nM) was 81.4%. The normalised viability (CAL-51 [18]; 1 nM) was 106%, the normalised viability (MDA-MB-468 [19]; 1 nM) was 111% and the normalised viability (BT-474 [20]; 1 nM) was 85.7%. For the same compound, the normalised viability (CAL-120 [21]; 1 nM) was 73.3%, the normalised viability (DU-4475 [22]; 1 nM) was 91.6% and the normalised viability (CAL-85-1 [23]; 1 nM) was 85.2%. It also gave a normalised viability (SK-BR-3 [24]; 1 nM) of 91.7%, a normalised viability (MDA-MB-231 [25]; 1 nM) of 80% and a normalised viability (BT-549 [26]; 1 nM) of 98%. It also gave a normalised viability (MDA-MB-453 [27]; 1 nM) of 97.4% and a normalised viability (CAL-148 [28]; 1 nM) of 103%.
In the case of `CC[C@@H]1C(=O)N(C)c2cnc(Nc3ccc(C(=O)NC4CCN(C)CC4)cc3OC)nc2N1C1CCCC1` [BI 2536], the normalised viability (MFM-223 [1]; 10 nM) is reported as 41.8%, the normalised viability (Hs578T; 10 nM) is reported as 83.5% and the normalised viability (HDQ-P1 [2]; 1 nM) is reported as 102%. For the same compound, the normalised viability (HCC1143 [3]; 10 nM) was 62.8%, the normalised viability (CAL-51 [4]; 1 nM) was 89.4% and the normalised viability (MDA-MB-468 [5]; 10 nM) was 48.5%. It also gave a normalised viability (BT-474 [6]; 10 nM) of 44.4%, a normalised viability (CAL-120 [7]; 10 nM) of 34.1% and a normalised viability (HCC1937; 10 nM) of 25.9%. The normalised viability (DU-4475 [8]; 1 nM) was 91.7%, the normalised viability (CAL-85-1 [9]; 1 nM) was 90% and the normalised viability (SK-BR-3 [10]; 10 nM) was 15.8%. It also gave a normalised viability (MDA-MB-231 [11]; 10 nM) of 52.6%, a normalised viability (BT-549 [12]; 10 nM) of 36.9% and a normalised viability (HCC1599; 10 nM) of 90.9%. For the same compound, the normalised viability (MDA-MB-436; 10 nM) was 77.8%, the normalised viability (MDA-MB-453 [13]; 1 nM) was 83.2% and the normalised viability (CAL-148 [14]; 1 nM) was 105%. For the same compound, the normalised viability (MFM-223 [15]; 0.1 nM) was 99%, the normalised viability (HDQ-P1 [16]; 0.1 nM) was 94% and the normalised viability (HCC1143 [17]; 0.1 nM) was 109%. The normalised viability (CAL-51 [18]; 0.1 nM) was 89.5%, the normalised viability (MDA-MB-468 [19]; 0.1 nM) was 114% and the normalised viability (BT-474 [20]; 0.1 nM) was 101%. It also gave a normalised viability (CAL-120 [21]; 0.1 nM) of 91.8%, a normalised viability (DU-4475 [22]; 0.1 nM) of 109% and a normalised viability (CAL-85-1 [23]; 0.1 nM) of 96.3%. The normalised viability (SK-BR-3 [24]; 0.1 nM) was 98.5%, the normalised viability (MDA-MB-231 [25]; 0.1 nM) was 105% and the normalised viability (BT-549 [26]; 0.1 nM) was 115%. It also gave a normalised viability (MDA-MB-453 [27]; 0.1 nM) of 94.7% and a normalised viability (CAL-148 [28]; 0.1 nM) of 98%.
